Assay results: ChEMBL document CHEMBL1201862, “PubChem BioAssay data set” (2004)
Calls of active or inactive are those of the source. Cut-off read from the data, not from the text of the source, for most assays here: actives have a measured EC50 and inactives only a lower limit.

Columns and labels:
cells = assay type: functional
[1] = HEp-2 cell cytotoxicity, dose response, cytotoxicity control for RSV inhibitor project, HTS (AID 2410); assay type: functional; settings: human respiratory syncytial virus
[2] = tested on: Streptococcus sp. 'group A'; experiment: growth inhibition of control SK(-) GAS strain, dose response, counter-screen for streptokinase expression inhibitor project, luminescence, kanamycin, BacTiterGlo, confirmation (AID 1900); assay type: functional, organism-based; settings: Streptococcus sp. 'group A'
Streptococcus = experiment: Group A Streptococcus viability loss, dose response, counter-screen for streptokinase expression inhibitor project, luminescence, BacTiterGlo (AID 1915); assay type: functional, organism-based; settings: Streptococcus;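 note: potency for reduction of bacterial viability or growth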
Streptokinase A = target: T1, Streptokinase A (Streptococcus pyogenes serotype M1, UniProt P10520); experiment: S. pyogenes streptokinase expression inhibitors, potency, dose response, plasminogen activation absorbance, OD405 (AID 1914); assay type: functional, Streptococcus pyogenes M1 GAS;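 note: secreted streptokinase activity via plasminogen activation per viability signal from cell pellet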
T1 sequence (P10520 whole entry): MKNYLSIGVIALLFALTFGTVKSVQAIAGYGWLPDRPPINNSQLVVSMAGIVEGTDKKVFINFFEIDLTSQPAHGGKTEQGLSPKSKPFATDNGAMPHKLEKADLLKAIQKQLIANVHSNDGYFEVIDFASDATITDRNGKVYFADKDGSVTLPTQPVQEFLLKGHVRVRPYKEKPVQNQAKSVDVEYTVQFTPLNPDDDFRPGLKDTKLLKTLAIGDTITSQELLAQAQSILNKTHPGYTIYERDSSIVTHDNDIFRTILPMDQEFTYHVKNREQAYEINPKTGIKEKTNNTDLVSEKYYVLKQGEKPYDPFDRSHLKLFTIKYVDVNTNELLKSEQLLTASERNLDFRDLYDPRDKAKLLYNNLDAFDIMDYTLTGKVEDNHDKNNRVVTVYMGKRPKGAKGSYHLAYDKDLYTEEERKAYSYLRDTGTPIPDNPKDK

[3] = inhibitors of intracellular T. cruzi replication, confirmation, NIH3T3 host cells, beta-gal luminescence (AID 2044); assay type: functional, cell-based;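 note: intracellular parasites grown in NIH/3T3 mouse fibroblasts as host cells; luminescent beta-galactosidase reporter signal from transgenic T. cruzi replicating inside host cells; inhibitors lower the luminescence signal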
[4] = cytotoxicity toward NIH3T3 fibroblasts, dose response, counter-screen, cell-based, ATP luminescence, mouse fibroblasts (AID 2010); assay type: functional; settings: NIH3T3;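 note: cells exposed to compound for about 90 hours before reading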
Cytochrome P450 3A4 = Cytochrome P450 3A4 (Homo sapiens, UniProt P08684);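 note: CYP3A4 tested as one member of a cytochrome P450 panel screen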
Cytochrome P450 3A4, sequence (P08684 whole entry): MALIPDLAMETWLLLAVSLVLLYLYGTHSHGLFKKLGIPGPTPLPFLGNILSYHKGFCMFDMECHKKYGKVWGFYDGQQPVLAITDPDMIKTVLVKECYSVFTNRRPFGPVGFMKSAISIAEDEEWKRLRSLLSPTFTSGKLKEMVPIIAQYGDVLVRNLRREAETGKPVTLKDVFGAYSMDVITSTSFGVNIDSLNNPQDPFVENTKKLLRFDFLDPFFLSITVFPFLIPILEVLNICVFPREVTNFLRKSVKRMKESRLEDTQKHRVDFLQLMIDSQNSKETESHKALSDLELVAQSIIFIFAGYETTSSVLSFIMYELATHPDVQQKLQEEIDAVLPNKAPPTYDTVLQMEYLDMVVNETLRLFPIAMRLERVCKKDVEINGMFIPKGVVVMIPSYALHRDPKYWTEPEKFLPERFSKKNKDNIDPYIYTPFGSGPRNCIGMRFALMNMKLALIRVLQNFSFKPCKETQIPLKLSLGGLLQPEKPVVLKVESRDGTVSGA

Question: For Cc1cccc(Cn2ccc(NC(=O)c3ccc4c(c3)OCO4)n2)c1, which IC50 (cells) is on record?
Answer: 2.33 µM (active)

Question: Which CC50 [1] does the source give for CCCCOc1ccc(-c2cn3ccccc3n2)cc1[N+](=O)[O-] here?
Answer: 38.7 µM (active)

Question: With COc1ccc(C(=O)Nc2ccccc2-c2nnn(CC(=O)Nc3ccc4c(c3)OCCO4)n2)cc1 as the molecule, how does the EC50 [2] read?
Answer: 41.1 µM (active)

Question: What about the EC50 (Streptococcus) of the same molecule?
Answer: > 150 µM (inconclusive)

Question: And the EC50 (Streptokinase A)?
Answer: > 150 µM (not active)

Question: What does the source list for Cc1cc(C)c2[nH]c(O)c(N=Nc3ccc(C(=O)O)cc3)c2c1?
Answer: EC50 [2]: 4.53 µM (active); EC50 (Streptococcus): 11.1 µM (active); EC50 (Streptokinase A): > 150 µM (not active)

Question: For CCN(c1ccccc1)S(=O)(=O)c1ccc(OC)c(NC(=O)CNCCc2ccccc2)c1, which CC50 [1] is on record?
Answer: 14.4 µM (active)

Question: And the EC50 [3]?
Answer: 1.72 µM (active)

Question: And the EC50 [4]?
Answer: > 60 µM (not active)

Question: Which AC50 (Cytochrome P450 3A4) does the source give for COc1cc2c3cc1Oc1c(OC)c(OC)cc4c1[C@@H](Cc1ccc(O)c(c1)Oc1ccc(cc1)C[C@@H]3N(C)CC2)CN(C)C4 here?
Answer: 2.51 µM (inconclusive)

Question: For Cc1ccc(C)c(-c2nnc(NC(=O)CCS(=O)(=O)c3ccccc3)o2)c1, which EC50 [2] is on record?
Answer: 8.03 µM (active)

Question: What about the EC50 (Streptococcus) of the same molecule?
Answer: 141 µM (active)

Question: And the EC50 (Streptokinase A)?
Answer: > 150 µM (not active)

Question: With Cc1ccc(C2(C(F)(F)F)N=C3Sc4cc(C)cc(C)c4N3C(=O)N2)cc1 (configuration not stated) as the molecule, how does the CC50 [1] read?
Answer: 23 µM (active)

Question: With COC(=O)c1nn(-c2ccc(OC)cc2)c(=O)cc1Oc1cccc(Cl)c1 as the molecule, how does the AC50 (Cytochrome P450 3A4) read?
Answer: 39.8 µM (inconclusive)

Question: For COc1ccc(/C=C/C(=O)Nc2cccc(S(=O)(=O)NC3=NCCCCC3)c2)cc1, which CC50 [1] is on record?
Answer: 27.9 µM (active)

Question: With CC1CCCC(C)N1c1nnc(NC(=O)c2cc(-c3ccc(Br)cc3)on2)s1 (configuration not stated) as the molecule, how does the EC50 [2] read?
Answer: 2.33 µM (active)

Question: And the EC50 (Streptococcus)?
Answer: 25.2 µM (active)

Question: And the EC50 (Streptokinase A)?
Answer: > 150 µM (not active)

Question: With NCCCP(=O)(O)O as the molecule, how does the AC50 (Cytochrome P450 3A4) read?
Answer: 0.158 µM (inconclusive)

Question: What does the source list for Cc1ccc(OCC(=O)Nc2cc(S(=O)(=O)N3CCCCC3)ccc2N2CCN(C)CC2)c(C)c1?
Answer: EC50 [3]: 0.171 µM (active); EC50 [4]: > 60 µM (not active)

Question: For Cc1ccc(S(=O)(=O)Nc2cccc(-c3ccc(N4CCCCCC4)nn3)c2)cc1C, which CC50 [1] is on record?
Answer: 25.8 µM (active)

Question: For COc1cccc(C(=O)OCC(=O)c2ccc(Br)s2)c1OC, which IC50 (cells) is on record?
Answer: 29.7 µM (active)

Question: Which results are given for Cc1cccc(C(=O)NNC(=O)c2c(O)c3ccccc3n(C)c2=O)c1?
Answer: EC50 [2]: 4.62 µM (active); EC50 (Streptococcus): 9.81 µM (active); EC50 (Streptokinase A): > 150 µM (not active)

Question: For Cc1nc(N2CCN(Cc3ccccc3)CC2)nc2c1C(=O)CC(C)C2 (configuration not stated), which EC50 [3] is on record?
Answer: 1.42 µM (active)

Question: What about the EC50 [4] of the same molecule?
Answer: > 60 µM (not active)

Question: Which IC50 (cells) does the source give for CCCOc1ccc(N2CC(C(=O)Nc3ccccc3F)CC2=O)cc1 (configuration not stated) here?
Answer: 32.1 µM (active)

Question: Which CC50 [1] does the source give for COc1ccc(C(C(=O)NC2CCCCC2)N(C(=O)Cc2c[nH]c3ccccc23)c2ccccc2)cc1OC (configuration not stated) here?
Answer: 27.2 µM (active)

Question: Which results are given for COc1ccc(-n2nc3cc(C)c(NC(=O)C(C)C)cc3n2)cc1?
Answer: EC50 [2]: > 150 µM (not active); EC50 (Streptococcus): > 150 µM (not active); EC50 (Streptokinase A): > 150 µM (not active)

Question: With CN1CCN(C(=O)CCCN2C(=O)/C(=C/c3ccc(Cl)cc3)SC2=S)CC1 as the molecule, how does the CC50 [1] read?
Answer: 13.5 µM (active)

Question: Which EC50 [3] does the source give for COc1ccccc1CN1CCCC(CNC(=O)c2cccc3ccccc23)C1 (configuration not stated) here?
Answer: 0.679 µM (active)

Question: What about the EC50 [4] of the same molecule?
Answer: > 60 µM (not active)

Question: With C/C(=N\NC(=S)Nc1ccccc1C)c1cc2ccccc2o1 as the molecule, how does the EC50 [3] read?
Answer: 2.18 µM (active)

Question: What about the EC50 [4] of the same molecule?
Answer: > 60 µM (not active)

Question: For CC[C@H]1C2=C3C(CC[C@H]4C(OCc5ccc(F)cc5C(F)(F)F)OC[C@](C)([C@@H]34)N(C(=O)OC(C)(C)C)C2)C(COC)C1COC (some centres not stated), which AC50 (Cytochrome P450 3A4) is on record?
Answer: 10 µM (inconclusive)

Question: What does the source list for Cn1nc(-c2ccccc2)c(CSc2ccccc2Cl)c1Cl?
Answer: EC50 [2]: 22.8 µM (active); EC50 (Streptococcus): > 150 µM (not active); EC50 (Streptokinase A): 22.8 µM (active)

Question: Which results are given for Fc1ccc(CNc2nc(-c3cccnc3)nc3ccccc23)cc1?
Answer: EC50 [3]: 0.67 µM (active); EC50 [4]: > 60 µM (not active)

Question: For N#Cc1ccccc1-c1ccc2ncnc(N3CCNCC3)c2c1, which AC50 (Cytochrome P450 3A4) is on record?
Answer: 31.6 µM (inconclusive)

Question: What does the source list for O=C(Nc1ccccc1N1CCN(C(=O)c2ccc(Cl)cc2)CC1)c1ccc(Br)cc1?
Answer: EC50 [3]: 1.29 µM (active); EC50 [4]: > 60 µM (not active)

Question: Which CC50 [1] does the source give for C1=NCCc2c1[nH]c1ccccc21.[O-][Cl+3]([O-])([O-])O here?
Answer: 10.3 µM (active)

Question: What does the source list for CCOc1ccccc1NC(=O)NCc1ccc2c(c1)OCO2?
Answer: EC50 [2]: > 150 µM (not active); EC50 (Streptococcus): > 150 µM (not active); EC50 (Streptokinase A): > 150 µM (not active)

Question: With Clc1ccccc1Sc1ccc(-c2ccccn2)s1 as the molecule, how does the EC50 [2] read?
Answer: 17.6 µM (active)

Question: And the EC50 (Streptococcus)?
Answer: > 150 µM (not active)

Question: What about the EC50 (Streptokinase A) of the same molecule?
Answer: > 150 µM (not active)
